In patent US20230355763A1, “NANOPARTICLE VACCINES AND USES THEREOF FOR PROPHYLAXIS AND TREATMENT OF ATHEROSCLEROSIS USING PEPTIDE 210 AS AN ANTIGEN” (CEDARS-SINAI MEDICAL CENTER, priority 2022, published 2023):

What was measured:
HLA-A*02:01 = molecular target: T1, HLA-A*02:01 (Homo sapiens, UniProt P04439, D140Y/D185E/D98H/E176V/E277Q/G131W/G231S/I119V/I121R/I166T/I218V/L300P/L318F/N151K/N90K/P208A/P217A/Q86G/Q94H/R138H/R169H/T345S); test: REVEAL binding assay of 9-mer P210 peptides; details: for binding to HLA-A*02:01 (REVEAL binding score), in words: tested by ProImmune
T1 construct: purchased ProImmune (contracted REVEAL assay service)
Experimental: The human Class-I HLA that occurs with the highest frequency in North America is HLA-A*02:01; and P210 epitope binding to HLA-A*02:01 was tested by ProImmune using the REVEAL assay. The REVEAL assay used 9-mer sequential peptides of P210 to assess binding to HLA-A*02:01 (Table 2): a plurality of 9-amino acid fragments, each identical to residues 1-9, 2-10, 3-11, 4-12, 5-13, 6-14, 7-15, 8-16, 9-17, 10-18, 11-19, or 12-20 of P210. […] ApOBKTTKQSFDL (SEQ ID NO:2) pentamer was able to detect a small but significant population of P210-specific CD8+ T cells in PBMCs from healthy HLA-A*02:01(+) volunteers (FIG. 7B-7E).
(§1) Proimmune was contracted to screen for potential binding epitopes in P210 to HLA-A*02:01. […] For pentamer staining, commercially available HLA-A*02:01 typed cryo-preserved PBMCs (Immunospot) were thawed, rinsed in anti-aggregation solution (Immunospot) and divided into 2×10^6 cell aliquots. ApOBKTTKQSFDL (SEQ ID NO:2) pentamer staining was performed according to manufacturer's instruction, with the HLA-A*02:01 Negative Pentamer (ProImmune) as negative control. Each sample stained for ApOBKTTKQSFDL (SEQ ID NO:2) pentamer had its corresponding negative control stain. Cells were washed and then stained for CD8 (LT8) andddCD19 (HIB19). Cells were again washed after staining and resuspended in 1% paraformaldehyde in 1% BSA/0.1% sodium azide and analyzed. ApOBKTTKQSFDL (SEQ ID NO:2) pentamer positive cells for each sample were determined based on the corresponding Negative Pentamer.

human PBMCs [1] = test: Activation Induced Marker (AIM) assay in human PBMC; assay type: cell-based
Experimental: Cryo-preserved PBMCs were thawed, rinsed in anti-aggregation solution (Immunospot), and seeded in culture plates at a density of 3×10^6 cells per ml of RPMI 1640 medium supplemented with 10% heat-inactivated pooled human serum and 1× antibiotic/antimycotic. After resting for 4 hours, cells were preincubated with 0.5 mg/ml anti-CD40 antibody for 15 minutes then stimulated with 20 μg/ml P210 peptide, 0.5× T cell stimulation cocktail containing PMA and ionomycin (Thermo Fisher), or CMV (pp65) Peptide Pool (StemCell Tech) as a non-relevant antigen control, whereas cells without treatment served as non-stimulated control. Cells were harvested 16 hours after seeding, stained for viability (LIVE/DEAD Fixable Aqua Dead Stain Kit, Thermo Fisher), and subjected to cell surface staining for flow cytometry using the following antibodies: CD4, CD8, CD25, CD69, OX40 (CD134), CD137 (4-1 BB) and CD154 (CD40L). Isotypes were used as staining control and eFluor506 labelled CD14, CD16 and CD19 antibodies were used as dump staining to exclude B cells, dendritic cells, macrophages, granulocytes, eosinophil cells and neutrophil cells. The results are expressed as fold change (ratio between the signal in the antigen stimulated condition and the signal in the unstimulated condition) for each subject, consistent with the reported AIM assay.

human PBMCs [2] = test: Peptide stimulation of human PBMC (T effector / effector memory, Response Index); assay type: cell-based; details: 20 μg/ml P210, 72 h; ACS PBMCs compared to controls
Experimental: Cryo-preserved PBMCs were thawed, rinsed and cultured as in AIM assay but without resting. Cells were stimulated with 20 μg/ml P210 peptide or 0.5× T cell stimulation cocktail containing phorbol 12-myristate 13-acetate (PMA) and ionomycin (Thermo Fisher) with non-treated cells serving as negative control. Culture medium was added at ⅓ of the starting volume 48 hours later to replenish the nutrients in the medium. Cells were harvested 72 hours after seeding, stained for viability (LIVE/DEAD Fixable Aqua Dead Stain Kit, ThermoFisher), and subjected to cell surface staining for flow cytometry using the following antibodies: CD3, CD4, CD8, CD45RA, CD45RO, CD62L, and CD197 (CCR7). Isotypes were used as staining control. CD4^+ or CD8^+ T Effector cells were gated on CD45RO^+CD62L^−CD197^−. T Effector Memory cells were CD45RO^+CD45RA^−CD62L^−CD197^−.
Results were Tabulated as Response Index Using the Following Calculation:
(% peptide stimulation−% no stimulation)/(% cocktail stimulation)×100.
The results are expressed as Response Index to account for inherent variations introduced by culturing cells in vitro over time, controlled for by assessing response relative to baseline cell phenotype (% no stimulation) and maximal stimulation (% cocktail stimulation) for each subject PBMC. Each data point represents one subject.

[3] = system: PBMCs from HLA-A*02:01(+) volunteers; test: ApoB KTTKQSFDL pentamer(+) CD8+ T cells in human PBMCs cultured with P210; assay type: cell-based; details: PBMCs cultured with 20 μg/ml P210 for 5 days
Experimental: as §1

A2Kb Tg ApoE-/- mice = test: Functional expression of A2Kb transgene (A2V7 immunization); assay type: in vivo, mouse; details: male mice, 20 μg/100 μl s.c. in IFA; compared to IFA-injected mice, P<0.05
Experimental: Male A2Kb Tg ApoE^−/− mice were immunized with the HLA-A*02:01-restricted peptide A2V7 from human hepatitis C virus (HCV NS5a 1987-1995, VLSDFKTWL (SEQ ID NO:34); ProImmune) emulsified in incomplete Freund's adjuvant (IFA; MP Biomedicals) at 9 and 10 weeks of age by subcutaneous injection at a dose of 20 μg/100 μl. Mice immunized with 100 μl IFA alone served as control. Mice were euthanized at 11 weeks of age. HLA-A*02:01 restricted antigen specific immune response was evaluated by flow cytometric analysis of splenocytes stained with CD19 (6D5), CD8a (KT15), and PE-conjugated HLA-A*02:01/A2V7-pentamer (ProImmune).

[4] = 20 μg/ml P210, 16 h, ACS patients compared to control subjects

## KTTKQSFDL (listed as Homo sapiens) [Peptide 1]
HLA-A*02:01; sequential 9-mer P210 peptides
  binding to HLA-A*02:01 (REVEAL binding score): KTTKQSFDL*
HLA-A*02:01; listed as First 9-mer sequence in P210
  binding to HLA-A*02:01 (REVEAL binding score), in words: high binding score
HLA-A*02:01; listed as first 9-mer
  binding to HLA-A*02:01 (REVEAL binding score), in words: scored well, comparable to the positive control

## KTTKQSFDLSVKAQYKKNKH (listed as Homo sapiens) [Peptide P210, ApoB-100 derived peptide P210 (ApoB-100 3136-3155)]
Human PBMCs [1]; [4]
  CD8+CD69+CD134+ T cells after P210 stimulation: no such increase was observed
  mean increase in CD4+CD69+CD134+ T cells after P210 stimulation: 1.5 fold
Human PBMCs [1]; after P210 stimulation, ACS vs controls
  markers for other AIM(+) cells (CD25+CD134+, CD69+CD154+, CD134+CD137+): not different compared to Controls
Human PBMCs [2]
  CD4+ T effector cell response to P210: not significantly different
  CD8+ T effector memory response to P210: significant increase
  CD8+ T effector response to P210: significant increase
[3]
  tested samples with an increase of pentamer specific CD8+ T cells: 5 out of 8

## VLSDFKTWL [Peptide A2V7, HLA-A*02:01-restricted peptide from human hepatitis C virus (HCV NS5a 1987-1995)]
A2Kb Tg ApoE-/- mice
  A2V7-pentamer+ CD8+ T cells in the spleen: significantly increased
